Source: publication PMC12631831, “Painting Peptides With Antimicrobial Potency Through Deep Reinforcement Learning” (Advanced Science, 2025)
Ends that are not written are not given here.

What was measured:
[1] = tested on: B.subtilis ATCC6633; settings: ATCC6633, 18 h
Experimental: (§1) Four standard bacteria used for the MIC test were Escherichia coli ATCC25922, Pseudomonas aeruginosa ATCC9027, Staphylococcus aureus ATCC6538, and Bacillus subtilis ATCC6633. The testing procedures followed the Hancock methods.^[ [67] ^] The peptides were diluted in sterilized PBS to 512 µM as storage solutions. Then twofold gradient dilution was performed to make different concentrations (128, 64, 32, 16, 8, 4, 2, 1, 0.5, 0.25, and 0.125 µM) of AMPs. Each bacteria was incubated in LB broth at 37 °C until its absorbance at 625 nm reached 0.08–0.10, then diluted 10,000 times and added into a sterile 96‐well polypropylene plate (Grenier, #655201). A co‐incubation system included 100 µL peptide solution and 100 µL bacterial suspension.

[2] = tested on: E.coli ATCC25922; settings: ATCC25922, 18 h
Experimental: as §1

[3] = tested on: P.aeruginosa ATCC9027; settings: ATCC9027, 18 h
Experimental: as §1

[4] = tested on: S.aureus ATCC6538; settings: ATCC6538, 18 h
Experimental: as §1

[5] = tested on: rat erythrocytes; assay: Hemolysis assay; settings: rat RBC 10% in PBS, 37 °C, 1 min, 1-128 µM, absorbance 450 nm, triplicate, fitted with GraphPad Prism 8
Experimental: In vitro hemolysis and cytotoxicity were measured by WuXi AppTec Co., ltd. The rat blood was collected and mixed in PBS, then centrifuged at 500 g for 5 mins to make the red blood cell solution (RBC, 10%). Two‐fold gradient dilution was performed to obtain different concentrations (128, 64, 32, 16, 8, 4, 2, and 1 µM) of AMP solutions. Then AMP solutions were added into 100 µL RBC to make the test solution and incubated at 37 °C for 1 min. The assay solution was centrifuged at 2500 g for 6 mins. After centrifugation, the 75 µL supernatant was placed into a 96‐well plate. PBS was used as the vehicle control and 0.1% Triton X‐100 was the positive control. The absorbance of the supernatant in each well was detected at 450 nm using EnVison (PerkinElmer) and the percentage of hemolysis was calculated as Equation (15). The HC25 value was fitted using GraphPad Prism 8. All tests were performed in triplicate. (15) Hemolysis%=AbsAMP−AbsPBS/AbsTritonX−100−AbsPBS×100

[6] = tested on: HEK293T cells; assay: Cytotoxicity assay (CellTiter-Glo); type: cell-based, human; settings: 72 h, 1-128 µM, triplicate
Experimental: HEK293T cells were cultured in DMEM supplemented with 10% FBS and incubated at 37 °C with 5% CO2. After planting the cells into a 96‐well plate and incubated overnight, AMP solutions were added. The gradient dilution of AMPs followed the same setting as mentioned in the hemolysis assay. Staurosporine (STS) was used as a positive control and PBS as vehicle control. STS was diluted to 60, 12, 2.4, 0.48, 0.1, 0.02, 0.0038, and 0.0008 µM. After incubation for 72 h, the CellTiter‐Glo®Luminescent assay was performed to evaluate the cell viability. After equilibration to room temperature, the 96‐well plate containing treated cells was loaded with 100 µL CellTiter Glo (CTG, Promega) reagent each well. The plate was incubated for 30 mins, then detected by the EnVision system at a […]. Data were fitted and analyzed with GraphPad Prism 8. All tests were performed in triplicate.

[7] = tested on: human erythrocytes; settings: ref DBAASP; cited from earlier work

Sequence	MIC B.subtilis ATCC6633 [1] [µM]	MIC E.coli ATCC25922 [2] [µM]	MIC P.aeruginosa ATCC9027 [3] [µM]	MIC S.aureus ATCC6538 [4] [µM]	CC50 (concentration that reduces viability by 50%) [6] [µM]	other results
WWWHLRIWLKKKHQKAQWKKFGWFMKQHH [R05]	8	> 128	128	2		
VKKRLLFRKPLLKLFLLFGRRLKA [S07]					22.12	HC25 (concentration that causes 25% hemolysis) [5]: > 128 µM
WKKWRWWWRWKKLWW [A10]					51.11	HC25 (concentration that causes 25% hemolysis) [5]: 30.13 µM
GILFLKRLRILGIGKLLLLKR [S05]	64	> 128	> 128	128		
WIPKRFGIVIKRFYYRPFYPLFQ [R07]	> 128	> 128	> 128	128		
KWFFKWFRKHFLKWMRQYFHK [R02]	4	128	64	8		
RGWFKVKMRYIKRFMRGLRGFHIKAA [2-6]	2	4	16	1		
QPKKPYKPIYKKVRGVLIPFKRV [R10]	> 128	> 128	> 128	> 128		
GIKKWIKGWAKKLIKKVAKKIAKQ [A05]	0.25	0.5	4	1		
RGWFKVKRRYIKRFMRGLRGFHIKAA [R04]	1	2	8	0.5	23.59	
KKQVKWLLKVWKKVGIKLGAKLPVWK [S01]	2	16	64	2		
GRKKRRRRRRGGWWWKLGLRWF [A08]	64	> 128	> 128	64		
IFHHIFRGIHHIFKGIHRLWKR [A02]	4	64	> 128	4		
RKRVVWGKIFFRRR [S04]	64	64				
YKGFWRKIIYLIMMHAMKFMVWFLHLPKQ [R08]	> 128	> 128	> 128	> 128		
KLYKYKYRKVYKKQRRR [R09]	> 128	> 128	> 128	64		
RWWRGWWRRKLKKLRKKLKKKLKGM [A01]					11.62	HC25 (concentration that causes 25% hemolysis) [5]: 14.66 µM

Sequence	MIC B.subtilis ATCC6633 [1] [µM]	MIC E.coli ATCC25922 [2] [µM]	MIC P.aeruginosa ATCC9027 [3] [µM]	MIC S.aureus ATCC6538 [4] [µM]	CC50 (concentration that reduces viability by 50%) [6] [µM]	other results
GIKKWIKGAIKKLIKKVAKWIWKQ [A07]	0.5	8	16	2		
AFHHIFRGIVHVGKTIHRLVTG [Piscidin 1 [F1A], reference compound]						MIC B.subtilis [1]: 4 µM; MIC E.coli [2]: 16 µM; MIC P.aeruginosa [3]: > 128 µM; MIC S.aureus [4]: 4 µM; Concentration for 100% hemolysis [7]: 100 µM
FFHHIFRKIHHVFKKIHRLFHH [A09]	4	64	> 128	8		
KQQRKRGRVRKALLGKVIGFGGLKLKG [S08]					> 128	HC25 (concentration that causes 25% hemolysis) [5]: > 128 µM
RLKIHLYIKHYRRPKIVIRLKIK [R01]	> 128	> 128	> 128	128		
IKRRIRRRPIRRRQRR [S06]	> 128	> 128	> 128	128		
YWRRWYIWRWRRWRWLRYI [R03]	128	> 128	> 128	128		
WVQKKVIKLILKGLFALKLLG [S03]	> 128	> 128	> 128	128	> 64	HC25 (concentration that causes 25% hemolysis) [5]: > 128 µM
RWRKWRRWWWRKKKLGF [A06]					71.09	HC25 (concentration that causes 25% hemolysis) [5]: > 128 µM
WRWKGRWRRKLKKLRWKLKKKLKLG [A03]					21.67	HC25 (concentration that causes 25% hemolysis) [5]: > 128 µM
RRLRRLRILLFLKRVLRR [S02]					> 128	HC25 (concentration that causes 25% hemolysis) [5]: > 128 µM
DGWTMVKARYIKRFMRGLRGFHIKAA [2-1]	8	8	> 128	16		
LWRWKLLGRISVIIGKIKAALRLWF [R06]	> 128	> 128	> 128	> 128		
KLKIKFKFHLKLFGLF [S09]	> 128	> 128	> 128	128		
RGWTMVKARYIKRFMRGLRGFHIKAA [2-2]	2	4	128	2		
KWWKRRRWRWRWKKLWK [A04]					49.63	HC25 (concentration that causes 25% hemolysis) [5]: > 128 µM
